# Patent publication US11208400B2, “Substituted 6-(1H-pyrazol-1-yl)pyrimidin-4-amine derivatives and uses thereof” (Bayer Aktiengesellschaft, priority 2016, dated 2021)
# Biological target: T1, human Npt2a (Homo sapiens, UniProt Q06495)
# T1 construct: expressed in transfected cells
# T1 sequence (Q06495 1-639): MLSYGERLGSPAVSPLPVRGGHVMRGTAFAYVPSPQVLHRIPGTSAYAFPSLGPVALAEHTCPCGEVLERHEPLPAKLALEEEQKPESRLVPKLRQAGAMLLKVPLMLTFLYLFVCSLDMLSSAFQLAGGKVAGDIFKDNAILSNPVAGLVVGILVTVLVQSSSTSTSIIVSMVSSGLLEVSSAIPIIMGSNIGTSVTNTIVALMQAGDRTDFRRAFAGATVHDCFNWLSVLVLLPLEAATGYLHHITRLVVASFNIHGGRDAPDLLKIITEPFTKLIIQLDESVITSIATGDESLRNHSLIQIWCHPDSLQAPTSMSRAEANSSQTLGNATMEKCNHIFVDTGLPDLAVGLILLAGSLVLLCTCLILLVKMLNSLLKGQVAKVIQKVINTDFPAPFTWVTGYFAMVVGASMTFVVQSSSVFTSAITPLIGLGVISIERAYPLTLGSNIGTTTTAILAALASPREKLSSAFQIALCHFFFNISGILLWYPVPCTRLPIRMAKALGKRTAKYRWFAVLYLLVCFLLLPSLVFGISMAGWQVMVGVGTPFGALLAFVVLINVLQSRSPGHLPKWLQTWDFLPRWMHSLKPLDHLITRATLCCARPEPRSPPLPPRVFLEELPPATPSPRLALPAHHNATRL
# Assay: Npt2a activity cell based assay, membrane potential dye, CHO T-REx hNpt2a cells
# Details: doxycycline-induced, depolarization by sodium phosphate influx, average or median values if tested more than once
# Summary of the method: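 Doxycycline-induced (0.5 μg/mL, 24 h) CHO T-REx cells were loaded with membrane potential dye in sodium-free NHE buffer (pH 7.4) and exposed to compound (50 μM–1 nM, 5 min, room temperature).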
row,SMILES,IC50 [µM]
1,"Cc1nn(-c2cc(Nc3c(Cl)c(-c4ccc(F)cc4)nn3C)ncn2)c(C)c1Cl [Example 88, 6-(4-chloro-3,5-dimethyl-1H-pyrazol-1-yl)-N-[4-chloro-3-(4-fluorophenyl)-1-methyl-1H-pyrazol-5-yl]pyrimidin-4-amine]",0.0285
2,"Cc1nn(-c2cc(Nc3c(C)c(-c4ccc(F)cc4)nn3CC3CC3)ncn2)c(C)c1C(=O)N(C)C [Example 402, 1-(6-{[1-(cyclopropylmethyl)-3-(4-fluorophenyl)-4-methyl-1H-pyrazol-5-yl]amino}pyrimidin-4-yl)-N,N,3,5-tetramethyl-1H-pyrazole-4-carboxamide]",0.055
3,"Cc1cc(C)n(-c2cc(Nc3nn(C)c(-c4ccc(Cl)cc4)c3C)ncn2)n1 [Example 355, N-[5-(4-chlorophenyl)-1,4-dimethyl-1H-pyrazol-3-yl]-6-(3,5-dimethyl-1H-pyrazol-1-yl)pyrimidin-4-amine]",0.02
4,"Cc1nn(-c2cc(Nc3nn(C)c(-c4ccccc4)c3Cl)ncn2)c(C)c1Cl [Example 53, 6-(4-chloro-3,5-dimethyl-1H-pyrazol-1-yl)-N-(4-chloro-1-methyl-5-phenyl-1H-pyrazol-3-yl)pyrimidin-4-amine]",0.0113
5,"CCc1c(Nc2cc(-n3nc(C)cc3C)ncn2)n[nH]c1C1CCCCC1 [Example 28, N-(5-cyclohexyl-4-ethyl-1H-pyrazol-3-yl)-6-(3,5-dimethyl-1H-pyrazol-1-yl)pyrimidin-4-amine]",0.49
6,"COCCn1nc(-c2ccc(F)cc2)c(C)c1Nc1cc(-n2nc(C)cc2C(F)F)ncn1 [Example 527, 6-[5-(difluoromethyl)-3-methyl-1H-pyrazol-1-yl]-N-[3-(4-fluorophenyl)-1-(2-methoxyethyl)-4-methyl-1H-pyrazol-5-yl]pyrimidin-4-amine]",0.009
7,"CCc1c(Nc2cc(-n3nc(C)cc3C)ncn2)n[nH]c1-c1ccc(Cl)cc1 [Example 21, N-[5-(4-chlorophenyl)-4-ethyl-1H-pyrazol-3-yl]-6-(3,5-dimethyl-1H-pyrazol-1-yl)pyrimidin-4-amine]",0.14
8,"Cc1nn(-c2cc(Nc3n[nH]c(-c4ccc(F)cc4)c3C)ncn2)c(C)c1Cl [Example 72, 6-(4-chloro-3,5-dimethyl-1H-pyrazol-1-yl)-N-[5-(4-fluorophenyl)-4-methyl-1H-pyrazol-3-yl]pyrimidin-4-amine]",0.0154
9,"COC(C)c1c(C)nn(-c2cc(Nc3c(C)c(-c4ccc(C#N)cc4)nn3C)ncn2)c1C (racemic) [Example 338, (±)-4-{5-[(6-{4-[1-methoxyethyl]-3,5-dimethyl-1H-pyrazol-1-yl}pyrimidin-4-yl)amino]-1,4-dimethyl-1H-pyrazol-3-yl}benzonitrile]",0.007
10,"Cc1c(-c2ccc(F)cc2)nn(CC2CC2)c1Nc1cc(-n2nc(C)c3ccncc32)ncn1 [Example 204, N-[1-(cyclopropylmethyl)-3-(4-fluorophenyl)-4-methyl-1H-pyrazol-5-yl]-6-(3-methyl-1H-pyrazolo[3,4-c]pyridin-1-yl)pyrimidin-4-amine]",0.003
11,"Cc1nn(-c2cc(Nc3c(C)c(-c4ccc(F)cc4)nn3CC3CC3)ncn2)c(C)c1C(O)C(F)(F)F (racemic) [Example 374, (±)-1-[1-(6-{[1-(cyclopropylmethyl)-3-(4-fluorophenyl)-4-methyl-1H-pyrazol-5-yl]amino}pyrimidin-4-yl)-3,5-dimethyl-1H-pyrazol-4-yl]-2,2,2-trifluoroethanol]",0.063
12,"CCOC(=O)c1c(C)nn(-c2cc(Nc3n[nH]c(-c4ccc(F)cc4)c3CC)ncn2)c1C [Example 4, ethyl 1-(6-{[4-ethyl-5-(4-fluorophenyl)-1H-pyrazol-3-yl]amino}pyrimidin-4-yl)-3,5-dimethyl-1H-pyrazole-4-carboxylate]",0.0283
13,"CCOC(=O)c1c(C)nn(-c2cc(Nc3c(Cl)c(-c4ccccc4)nn3C)ncn2)c1C [Example 79, ethyl 1-{6-[(4-chloro-1-methyl-3-phenyl-1H-pyrazol-5-yl)amino]pyrimidin-4-yl}-3,5-dimethyl-1H-pyrazole-4-carboxylate]",0.031
14,"Cc1cc(C)n(-c2cc(Nc3n[nH]c(-c4ccc(F)cc4F)c3Cl)ncn2)n1 [Example 6, N-[4-chloro-5-(2,4-difluorophenyl)-1H-pyrazol-3-yl]-6-(3,5-dimethyl-1H-pyrazol-1-yl)pyrimidin-4-amine]",0.049
15,"COCCn1nc(-c2ccc(F)cn2)c(C)c1Nc1cc(-n2nc(C)c(C(=O)N(C)C)c2C)ncn1 [Example 557, 1-(6-{[3-(5-fluoropyridin-2-yl)-1-(2-methoxyethyl)-4-methyl-1H-pyrazol-5-yl]amino}pyrimidin-4-yl)-N,N,3,5-tetramethyl-1H-pyrazole-4-carboxamide]",1
16,"Cc1ccc(-c2nn(C)c(Nc3cc(-n4nc(C)c(C(F)(F)F)c4C)ncn3)c2C)cn1 [Example 530, N-[1,4-dimethyl-3-(6-methylpyridin-3-yl)-1H-pyrazol-5-yl]-6-[3,5-dimethyl-4-(trifluoromethyl)-1H-pyrazol-1-yl]pyrimidin-4-amine]",0.033
17,"Cc1cc(C)n(-c2cc(Nc3nn(CC(F)F)c(-c4ccc(C#N)cc4)c3C)ncn2)n1 [Example 252, 4-[1-(2,2-difluoroethyl)-3-{[6-(3,5-dimethyl-1H-pyrazol-1-yl)pyrimidin-4-yl]amino}-4-methyl-1H-pyrazol-5-yl]benzonitrile]",0.048
18,"Cc1nn(-c2cc(Nc3c(C)c(-c4ccc(F)cc4)nn3CC3CC3)ncn2)c(C)c1C1(O)CC1 [Example 244, 1-[1-(6-{[1-(cyclopropylmethyl)-3-(4-fluorophenyl)-4-methyl-1H-pyrazol-5-yl]amino}pyrimidin-4-yl)-3,5-dimethyl-1H-pyrazol-4-yl]cyclopropanol]",0.008
19,"Cc1nn(-c2cc(Nc3nn(CC4CC4)c(-c4ccc(F)cc4)c3Cl)ncn2)c2cnccc12 [Example 207, N-[4-chloro-1-(cyclopropylmethyl)-5-(4-fluorophenyl)-1H-pyrazol-3-yl]-6-(3-methyl-1H-pyrazolo[3,4-c]pyridin-1-yl)pyrimidin-4-amine]",0.018
20,"Cc1nn(-c2cc(Nc3nn(C)c(-c4ccc(F)cc4)c3C)ncn2)c(C)c1Cl [Example 67, 6-(4-chloro-3,5-dimethyl-1H-pyrazol-1-yl)-N-[5-(4-fluorophenyl)-1,4-dimethyl-1H-pyrazol-3-yl]pyrimidin-4-amine]",0.00345
21,"CCOC(=O)c1c(C)nn(-c2cc(Nc3nn(C)c(-c4ccc(F)cc4)c3CC)ncn2)c1C [Example 40, ethyl 1-(6-{[4-ethyl-5-(4-fluorophenyl)-1-methyl-1H-pyrazol-3-yl]amino}pyrimidin-4-yl)-3,5-dimethyl-1H-pyrazole-4-carboxylate]",2.76
22,"CCc1c(-c2ccc(F)cc2)nn(CC2CC2)c1Nc1cc(-n2nc(C)c(Cl)c2C)ncn1 [Example 115, 6-(4-chloro-3,5-dimethyl-1H-pyrazol-1-yl)-N-[1-(cyclopropylmethyl)-4-ethyl-3-(4-fluorophenyl)-1H-pyrazol-5-yl]pyrimidin-4-amine]",< 0.0016
23,"COc1c(-c2ccc(C#N)cc2)nn(CC2CC2)c1Nc1cc(-n2nc(C)c(C(C)=O)c2C)ncn1 [Example 318, 4-[5-{[6-(4-acetyl-3,5-dimethyl-1H-pyrazol-1-yl)pyrimidin-4-yl]amino}-1-(cyclopropylmethyl)-4-methoxy-1H-pyrazol-3-yl]benzonitrile]",0.79
24,"CCOC(=O)c1c(C)nn(-c2cc(Nc3nn(CC4CC4)c(-c4ccc(F)cc4)c3Cl)ncn2)c1C [Example 153, ethyl 1-(6-{[4-chloro-1-(cyclopropylmethyl)-5-(4-fluorophenyl)-1H-pyrazol-3-yl]amino}pyrimidin-4-yl)-3,5-dimethyl-1H-pyrazole-4-carboxylate]",0.41
25,"CCOC(=O)c1c(Cl)c(C)nn1-c1cc(Nc2nn(C)c(-c3ccc(F)cc3)c2CC)ncn1 [Example 178, ethyl 4-chloro-1-(6-{[4-ethyl-5-(4-fluorophenyl)-1-methyl-1H-pyrazol-3-yl]amino}pyrimidin-4-yl)-3-methyl-1H-pyrazole-5-carboxylate]",0.026
26,"Cc1cc(C(F)F)n(-c2cc(Nc3c(C)c(-c4ccc(F)cn4)nn3C)ncn2)n1 [Example 465, 6-[5-(difluoromethyl)-3-methyl-1H-pyrazol-1-yl]-N-[3-(5-fluoropyridin-2-yl)-1,4-dimethyl-1H-pyrazol-5-yl]pyrimidin-4-amine]",0.17
27,"Cc1nn(-c2cc(Nc3nn(CC4CC4)c(-c4ccc(F)cc4)c3Cl)ncn2)c(C(F)F)c1Cl [Example 184, N-[4-chloro-1-(cyclopropylmethyl)-5-(4-fluorophenyl)-1H-pyrazol-3-yl]-6-[4-chloro-5-(difluoromethyl)-3-methyl-1H-pyrazol-1-yl]pyrimidin-4-amine]",1.2
28,"Cc1cc(C)n(-c2cc(Nc3c(C4CC4)c(-c4ccc(F)cc4)nn3C)ncn2)n1 [Example 43, N-[4-cyclopropyl-3-(4-fluorophenyl)-1-methyl-1H-pyrazol-5-yl]-6-(3,5-dimethyl-1H-pyrazol-1-yl)pyrimidin-4-amine]",0.144
